In one assay the target is T1, EED (1-441)-His protein (Homo sapiens, UniProt O75530).
T1 construct: 20 nM EED (1-441)-His protein
In words: EED-H3K27Me3 peptide competition binding assay by AlphaScreen. The conditions noted are these: read-out: Alpha screen. An outline of the steps: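 EED(1-441)-His was preincubated 15 min with compound, then biotin-H3K27Me3(19-33) peptide added for 30 min; both were added as 20 nM solutions in 25 mM HEPES pH 8, 0.02% Tween-20, 0.5% BSA. Ni-chelate acceptor and streptavidin donor beads (10 μg/ml each final) were added for 1 h in the dark at RT. Signal read at 615 nm (680 nm excitation), normalised to controls and fitted to dose-response for IC50.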

The test system of assay [1] is human B cell lymphoma cell KARPAS422. The assay is described as follows: Cell proliferation (WST-8), KARPAS422, 7 days. The conditions noted are these: KARPAS-422, 168 h, WST-8, Table 4A, read-out: Karpas Cell line. Type of assay: cell-based. The protocol:
Analysis of Cell Proliferation:
To assess the effect of PRC2 inhibition on cell growth, cells were seeded in 96-well cell culture plates at a density of 2 000-3 000 cells/well in 200 μL of culture medium, and treated with serially diluted compounds for 7 days at 37° C. in an atmosphere of 5% CO2. Cell growth was evaluated by a […] WST-8 assay (Dojindo Molecular Technologies) using a Tecan Infinite M1000 multimode microplate reader (Tecan, Morrisville, NC). The WST-8 reagent was added to the plate, incubated for 1-4 h, and read at 450 nm. The readings were normalized to the DMSO-treated cells, and the IC50 was calculated by nonlinear regression analysis using GraphPad Prism 6 software

In assay [2] the test system is BAP1 mut mesothelioma PDX model. In words: BAP1 mut mesothelioma PDX model (Examples 15-17). The note with it: Compound A-1 10 mg/kg, orally, every other day, 28 days; end of study. The class given is in vivo, mice. The method, then: A subcutaneous xenograft tumor model of human tumor immunodeficient mice was established by cell inoculation: tumor cells in logarithmic growth phase were collected, counted, resuspended in 1×PBS, and the cell suspension concentration was adjusted to 2.5-5×10^7/mL. The tumor cells were inoculated subcutaneously in the right side of immunodeficient mice with a 1 ml syringe ([…]), 5-10×10^6/0.2 mL/mouse. All animal experiments were strictly in accordance with the specifications for the use and management of experimental animals in GenePharma Co., Ltd. and Suzhou Ascentage Pharma Co., Ltd. The calculation of relevant parameters refers to the Chinese NMPA “Guidelines for Non-Clinical Research Techniques of Cytotoxic Anti-tumor Drugs”.
Animal body weight and tumor size were measured twice weekly during the experiment. The state of the animal and the presence or absence of death were observed every day. The growth of tumor and the effects of treatment on normal behavior of animals were monitored routinely, specifically involving experimental animal activity, feeding and drinking, weight gain or loss, eyes, clothing hair and other abnormalities. The deaths and clinical symptoms observed during the experiment were recorded in the raw data. All operations for administration and measurement of mouse body weight and tumor volume were performed in a clean bench. According to the requirements of the experimental protocol, after the end of the last administration, plasma and tumor tissues were collected, weighed and photographed. The plasma and tumor samples were frozen at −80° C. for ready-to-use.
Tumor volume (TV) is calculated as: TV=a×b^2/2, wherein a and b represent the length and width of the tumor to be measured, respectively.
The relative tumor volume (RTV) is calculated as: RTV=Vt/V1, wherein V1 is the tumor volume at the start of grouping and administration, and Vt is the tumor volume measured on the t day after administration.
The evaluation index of anti-tumor activity is the relative tumor proliferation rate T/C (%), and the calculation formula thereof is: relative tumor proliferation rate T/C (%)=(TRTV/CRTV)×100%, TRTV is the RTV of treatment group, CRTV is the RTV of solvent control group.
A dose of drug is considered to be severely toxic if the body weight of mouse is reduced by more than 20% or the number of drug-related deaths exceeds 20%.
According to the description by Clarke R., Issues in experimental design and endpoint analysis in the study of experimental cytotoxic agents in vivo in breast cancer and other models [J]. Breast Cancer Research & Treatment, 1997, 46(2-3): 255-278, synergy analysis was evaluated using the following formula: synergy factor=((A/C)×(B/C))/(AB/C); A=RTV value of drug A alone group; B=RTV value of drug B alone group; C=RTV value of the solvent control group, and AB=RTV value of the A and B combination group.
In this experiment, a BAP1 mut mesothelioma PDX model (Lide Biotech) was established to evaluate the anti-tumor effect of Compound 73. The dosing regimen was as follows: • Compound 73: 50 mg/kg, orally, once per day, for a total of 28 days; • Compound 73: 100 mg/kg, orally, once per day, for a total of 28 days;
In this experiment, a BAP1 mut mesothelioma PDX model (Lide Biotech) was established to evaluate the anti-tumor effect of Compound 73 in combination with Compound A-1. […]

Where two headings read alike, the source gives them in different places. Some results are limits rather than exact numbers.

T1 sequence (O75530 whole entry): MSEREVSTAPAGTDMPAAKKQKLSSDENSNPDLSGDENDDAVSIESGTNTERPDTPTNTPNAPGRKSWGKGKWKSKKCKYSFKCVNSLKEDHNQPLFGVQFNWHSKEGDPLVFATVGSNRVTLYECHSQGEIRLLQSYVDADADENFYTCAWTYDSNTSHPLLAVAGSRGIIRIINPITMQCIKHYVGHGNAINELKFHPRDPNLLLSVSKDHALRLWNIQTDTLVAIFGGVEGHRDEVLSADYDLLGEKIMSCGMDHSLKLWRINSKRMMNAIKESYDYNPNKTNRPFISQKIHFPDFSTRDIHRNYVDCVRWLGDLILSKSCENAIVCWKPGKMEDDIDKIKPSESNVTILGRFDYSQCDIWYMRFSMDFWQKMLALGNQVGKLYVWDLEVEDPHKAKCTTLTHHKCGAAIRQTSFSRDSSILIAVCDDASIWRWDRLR

Regarding `O=C1c2ncn3c(NCc4c(F)ccc5c4CCO5)ncc(c23)-c2ccc(F)cc2CN1CCF` [Compound 79, 7-fluoro-12-(((5-fluoro-2,3-dihydrobenzofuran-4-yl)methyl)amino)-4-(2-fluoroethyl)-4,5-dihydro-3H-2,4,11,12a-tetraazabenzo[4,5]cycloocta [1,2,3-cd]inden-3-one], the IC50 on EED (1-441)-His protein (Table 4A) is 1.61 nM; in assay [1] it was 15.3 nM.
Consider `O=C1c2ncn3c(NCc4c(F)ccc5c4CCO5)ncc(c23)-c2ccc(F)cc2CN1C1CC1` [Compound 64, 4-cyclopropyl-7-fluoro-12-(((5-fluoro-2,3-dihydrobenzofuran-4-yl)methyl)amino)-4,5-dihydro-3H-2,4,11,12a-tetraazabenzo[4,5]cycloocta[1,2,3-cd] inden-3-one], for which the IC50 in assay [1] is 2.44 nM.
With `O=C1c2ncn3c(NCc4c(F)ccc5c4CCO5)ncc(c23)-c2ccc(F)cc2CN1C1CCOCC1` [Compound 65, 7-fluoro-12-(((5-fluoro-2,3-dihydrobenzofuran-4-yl)methyl)amino)-4-(tetrahydro-2H-pyran-4-yl)-4,5-dihydro-3H-2,4,11,12a-tetraazabenzo[4,5] cycloocta[1,2,3-cd]inden-3-one], the IC50 in assay [1] worked out at 0.69 nM.
On to `CC(F)(F)CN1Cc2cc(F)ccc2-c2cnc(NCc3c(F)ccc4c3CCO4)n3cnc(c23)C1=O` [Compound 76, 4-(2,2-difluoropropyl)-7-fluoro-12-(((5-fluoro-2,3-dihydrobenzofuran-4-yl)methyl)amino)-4,5-dihydro-3H-2,4,11,12a-tetraazabenzo[4,5]cycloocta [1,2,3-cd]inden-3-one], for which the IC50 at EED (1-441)-His protein (Table 4A) is 0.97 nM; in assay [1], 14.5 nM.
Take `Cc1ccc(C(=O)Nc2ccc(CN3CCN(C)CC3)c(C(F)(F)F)c2)cc1C#Cc1cnc2[nH]ncc2c1` [Compound A-1]: in assay [2], the “T/C (%)” value came to 74.8%.
In the case of `CN1CCC(N2Cc3cc(F)ccc3-c3cnc(NCc4c(F)ccc5c4CCO5)n4cnc(c34)C2=O)CC1` [Compound 75, 7-fluoro-12-(((5-fluoro-2,3-dihydrobenzofuran-4-yl)methyl)amino)-4-(1-methylpiperidin-4-yl)-4,5-dihydro-3H-2,4,11,12a-tetraazabenzo[4,5] cycloocta[1,2,3-cd]inden-3-one], the results for the IC50 (at EED (1-441)-His protein (Table 4A); in assay [1]) were 1.72 nM and 11.1 nM, respectively.
In the case of `O=C1c2ncn3c(NCc4c(F)ccc5c4CCO5)ncc(c23)-c2ccc(F)cc2CN1CC(F)F` [Compound 80, 4-(2,2-difluoroethyl)-7-fluoro-12-(((5-fluoro-2,3-dihydrobenzofuran-4-yl)methyl)amino)-4,5-dihydro-3H-2,4,11,12a-tetraazabenzo[4,5]cycloocta[1,2,3-cd]inden-3-one], the IC50 at EED (1-441)-His protein (Table 4A) came out at 1.61 nM; in assay [1], 2.42 nM.
Regarding `CC(C)(F)CN1Cc2cc(F)ccc2-c2cnc(NCc3c(F)ccc4c3CCO4)n3cnc(c23)C1=O` [Compound 78, 7-fluoro-12-(((5-fluoro-2,3-dihydrobenzofuran-4-yl)methyl)amino)-4-(2-fluoro-2-methylpropyl)-4,5-dihydro-3H-2,4,11,12a-tetraazabenzo[4,5] cycloocta[1,2,3-cd]inden-3-one], the IC50 on EED (1-441)-His protein (Table 4A) worked out at 3.23 nM; in assay [1] it was 34.5 nM.
In the case of `O=C1c2ncn3c(NCc4c(F)ccc5c4CCO5)ncc(c23)-c2nc(C(F)(F)F)ccc2CN1CC1COCCO1` (stereo not shown) [Compound 40, 4-((1,4-dioxan-2-yl)methyl)-12-(((5-fluoro-2,3-dihydrobenzofuran-4-yl)methyl)amino)-8-(trifluoro-methyl)-4,5-dihydro-3H-2,4,9,11,12a-pentaazabenzo [4,5]cycloocta[1,2,3-cd]inden-3-one], the IC50 at EED (1-441)-His protein (Table 4A) is 10.5 nM.
Consider `Cc1ccc2c(n1)Cn1c(C)cnc1-c1ncn3c(NCc4c(F)ccc5c4CCO5)ncc-2c13` [E 18, N-((5-fluoro-2,3-dihydrobenzofuran-4-yl)methyl)-5,8-dimethyl-6H-2,3,5a,7,12,13a-hexaazabenzo[4, 5]cyclopenta[7,8]cycloocta[1,2,3-cd]inden-13-amine], for which the IC50 at EED (1-441)-His protein (IC50 class, Table 4B) is less than 10 nM.
For `CC(C)N1Cc2cc(C#N)ccc2-c2cnc(NCc3c(F)ccc4c3CCO4)n3cnc(c23)C1=O` [E 4, 12-(((5-fluoro-2,3-dihydrobenzofuran-4-yl)methyl)amino)-4-isopropyl-3-oxo-4,5-dihydro-3H-2,4,11, 12a-tetraazabenzo[4,5]cycloocta[1,2,3-cd]indene-7-carbonitrile], the IC50 on EED (1-441)-His protein (IC50 class, Table 4B) is less than 10 nM.

(Values after US20240316051A1, “A PHARMACEUTICAL COMBINATION AND USE THEREOF” (Ascentage Pharma (Suzhou) Co., Ltd., priority 2021, published 2024).)
